Results on one compound are retold here after BindingDB's records for doi:10.1021/np960678l (1997).

Each structure is given as a SMILES string.

For this assay, the target named is T1, 5-hydroxytryptamine receptor 1A (Homo sapiens, UniProt P08908).
T1 sequence (P08908 whole entry): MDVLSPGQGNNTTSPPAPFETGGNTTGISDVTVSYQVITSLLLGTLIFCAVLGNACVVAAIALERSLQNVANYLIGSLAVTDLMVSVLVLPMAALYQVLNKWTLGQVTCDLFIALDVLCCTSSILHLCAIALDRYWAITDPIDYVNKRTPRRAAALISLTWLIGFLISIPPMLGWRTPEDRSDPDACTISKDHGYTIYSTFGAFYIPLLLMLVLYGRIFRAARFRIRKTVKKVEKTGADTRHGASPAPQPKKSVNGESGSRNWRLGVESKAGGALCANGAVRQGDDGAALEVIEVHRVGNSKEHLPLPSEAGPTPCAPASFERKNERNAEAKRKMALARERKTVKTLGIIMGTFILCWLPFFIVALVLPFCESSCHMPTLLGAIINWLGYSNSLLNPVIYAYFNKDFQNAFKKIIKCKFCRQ
Nature of the assay: Displacement of [3H]8-OH-DPAT from 5HT1A receptor by vacuum filtration.

As for `COc1cc(-c2oc3cc(O)cc(=O)c-3c(O)c2O[C@@H]2O[C@H](CO)[C@H](O)[C@H](O)[C@H]2O)ccc1O` [isohamnetin 3-O-galactoside], the Ki is above 100 µM.

Broadly, the Ki is a dissociation constant, usually derived from enzyme kinetics or from competition with a known ligand. A high value points to weaker binding.
